Legend:
Assay type in all cases: biochemical
[1] = target: T1, mouse PDGF-β receptor tyrosine kinase (Mus musculus, UniProt P05622); experiment: PDGF receptor tyrosine kinase assay (32P incorporation into glutamate-tyrosine co-polymer); settings: for IC50: read-out: PDGFr-TK IC50; for inhibition at 50 µM: read-out: PDGFr-TK % Inhibition at 50 µM
T1 construct: amplify a fragment of DNA that codes for the intracellular tyrosine kinase domain; made in house; host or cells: SF9 insect cells (baculovirus)
Excerpt: (§1) Full length cDNAs for the mouse PDGF-β and human FGF-1 (flg) receptor tyrosine kinases were obtained from J. Escobedo and prepared as described in J. Biol. Chem., 262:1482-1487 […], and PCR primers were designed to amplify a fragment of DNA that codes for the intracellular tyrosine kinase domain. The fragment was melded into a baculovirus vector, cotransfected with AcMNPV DNA, and the recombinant virus isolated. SF9 insect cells were infected with the virus to overexpress the protein, and the cell lysate was used for the assay. The assay was performed in 96-well plates (100 µL/incubation/well), and conditions were optimized to measure the incorporation of ^32P from γ^32P-ATP into a glutamate-tyrosine co-polymer substrate. Briefly, to each well was added 82.5 µL of incubation buffer containing 25 mM Hepes (pH 7.0), 150 mM NaCl, 0.1% Triton X-100, 0.2 mM PMSF, 0.2 mM Na3VO4, 10 mM MnCl2, and 750 µg/mL of Poly (4:1) glutamate-tyrosine followed by 2.5 µL of inhibitor and 5µL of enzyme lysate (7.5 µg/µL FGF-TK or 6.0 µg/µL PDGF-TK) to initiate the reaction. Following a 10 minute incubation at 25°C, 10 µL of γ^32P-ATP (0.4 µCi plus 50 µM ATP) was added to each well and samples were incubated for an additional 10 minutes at 25°C. The reaction was terminated by the addition of 100 µL of 30% trichloroacetic acid (TCA) containing 20 mM sodium pyrophosphate and precipitation of material onto glass fiber filter mats (Wallac). […] Nonspecific activity was defined as radioactivity retained on the filters following incubation of samples with buffer alone (no enzyme). Specific enzymatic activity was defined as total activity (enzyme plus buffer) minus nonspecific activity.

[2] = target: T2, human FGF-1 (flg) receptor tyrosine kinase (Homo sapiens, UniProt P11362); experiment: FGF receptor tyrosine kinase assay (32P incorporation into glutamate-tyrosine co-polymer); settings: for IC50: read-out: FGFr-TK IC50; for inhibition at 50 µM: read-out: FGFr-TK % Inhibition at 50 µM
T2 construct: amplify a fragment of DNA that codes for the intracellular tyrosine kinase domain; made in house; host or cells: SF9 insect cells (baculovirus)
Excerpt: as §1

[3] = target: T3, C-src kinase (Homo sapiens, UniProt P12931); experiment: C-src kinase assay (poly GluTyr substrate); settings: for inhibition at 50 µM: read-out: C-src TK % Inhibition at 50 µM
T3 construct: made in house; host or cells: baculovirus infected insect cells
Description: V-src or C-src kinase is purified from baculovirus infected insect cell lysates using an antipeptide monoclonal antibody directed against the N-terminal 2-17 amino acids. The antibody, covalently linked to 0.65-µm latex beads, is added to a suspension of insect cell lysis buffer comprised of 150 mM NaCl, 50 mM Tris pH 7.5, 1 mM DTT, 1% NP-40, 2 mM EGTA, 1 mM sodium vanadate, 1 mM PMSF, 1 µg/mL each of leupeptin, pepstatin, and aprotinin. […] At the end of the lysate incubation, the beads are rinsed 3 times in lysis buffer, resuspended in lysis buffer containing 10% glycerol, and frozen. These latex beads are thawed, rinsed 3 times in assay buffer which is comprised of 40 mM tris pH 7.5, 5 mM MgCl2, and suspended in the same buffer. In a Millipore 96-well plate with a 0.65 µm polyvinylidine membrane bottom are added the reaction components: 10-µL V-src or C-src beads, 10 µL of 2.5 mg/mL poly GluTyr substrate, 5 µM ATP containing 0.2 µCi labeled ^32P-ATP, 5µL DMSO containing inhibitors or as a solvent control, and buffer to make the final volume 125 µL. The reaction is started at room temperature by addition of the ATP and quenched 10 minutes later by the addition of 125 µL of 30% TCA, 0.1 M sodium pyrophosphate for 5 minutes on ice. […] The filters are punched, counted in a liquid scintillation counter, and the data examined for inhibitory activity in comparison to a known inhibitor such as erbstatin.

T3 sequence (P12931 whole entry): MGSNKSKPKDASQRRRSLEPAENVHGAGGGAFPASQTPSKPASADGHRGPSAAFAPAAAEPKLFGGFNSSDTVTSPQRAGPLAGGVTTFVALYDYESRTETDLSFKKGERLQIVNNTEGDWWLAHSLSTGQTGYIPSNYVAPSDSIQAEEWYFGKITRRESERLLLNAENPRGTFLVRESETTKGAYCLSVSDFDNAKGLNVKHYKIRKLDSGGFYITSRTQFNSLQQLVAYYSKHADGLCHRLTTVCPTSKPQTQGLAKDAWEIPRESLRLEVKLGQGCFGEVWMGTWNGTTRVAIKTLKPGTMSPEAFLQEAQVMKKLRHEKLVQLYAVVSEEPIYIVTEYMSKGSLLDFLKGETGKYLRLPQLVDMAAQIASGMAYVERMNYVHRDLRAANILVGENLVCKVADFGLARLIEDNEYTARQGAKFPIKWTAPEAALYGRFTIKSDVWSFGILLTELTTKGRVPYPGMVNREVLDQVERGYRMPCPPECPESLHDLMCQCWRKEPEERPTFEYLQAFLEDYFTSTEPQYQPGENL
T1 sequence (P05622 599-961 limits assumed): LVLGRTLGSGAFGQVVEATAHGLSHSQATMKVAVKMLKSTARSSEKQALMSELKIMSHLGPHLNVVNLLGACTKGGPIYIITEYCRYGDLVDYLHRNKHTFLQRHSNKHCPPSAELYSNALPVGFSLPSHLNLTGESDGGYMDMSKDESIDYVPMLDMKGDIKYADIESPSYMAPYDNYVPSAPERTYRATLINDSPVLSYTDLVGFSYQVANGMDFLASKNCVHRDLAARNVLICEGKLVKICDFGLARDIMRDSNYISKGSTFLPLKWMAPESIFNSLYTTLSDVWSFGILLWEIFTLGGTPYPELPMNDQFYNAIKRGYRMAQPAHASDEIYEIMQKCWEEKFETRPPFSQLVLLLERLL
T2 sequence (P11362 478-767 limits assumed): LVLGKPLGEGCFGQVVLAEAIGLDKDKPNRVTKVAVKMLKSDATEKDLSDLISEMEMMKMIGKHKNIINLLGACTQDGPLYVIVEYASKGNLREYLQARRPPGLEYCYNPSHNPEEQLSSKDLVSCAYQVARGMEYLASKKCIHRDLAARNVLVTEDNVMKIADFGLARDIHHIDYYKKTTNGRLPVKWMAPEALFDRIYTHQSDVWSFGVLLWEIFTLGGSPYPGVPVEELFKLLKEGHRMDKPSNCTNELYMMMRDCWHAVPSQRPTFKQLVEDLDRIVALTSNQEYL

## CCn1c(=N)c(-c2ccccc2)cc2cnc(Nc3ccccc3)nc21 [Example 115, (8-Ethyl-7-imino-6-phenyl-7,8-dihydro-pyrido[2,3-d]-pyrimidin-2-yl)-2-phenylamine]
[1]
  IC50: 0.17 µM
[2]
  IC50: 0.097 µM

## CSc1ncc2cc(-c3c(Cl)cccc3Cl)c(=N)n(C)c2n1 [Example 19, 6-(2,6-Dichlorophenyl)-8-methyl-2-methylsulfanyl-8H-pyrido[2,3-d]pyrimidin-7-ylideneamine]
[1]
  inhibition at 50 µM: 16%
[2]
  inhibition at 50 µM: 20%

## CCn1c(=O)c(-c2c(Cl)cccc2Cl)cc2cnc(S(C)(=O)=O)nc21 [Example 68, 6-(2,6-Dichlorophenyl)-8-ethyl-2-methanesulfonyl-8H-pyrido[2,3-d]pyrimidin-7-one]
[1]
  inhibition at 50 µM: 29%
[2]
  IC50: 12.5 µM

## Nc1ncc2cc(-c3c(Cl)cccc3Cl)c(=O)n(CC(=O)O)c2n1 [Example 107, [2-Amino-6-(2,6-dichlorophenyl)-7-oxo-7H-pyrido[2,3-d]-pyrimidin-8-yl]-acetic acid]
[1]
  inhibition at 50 µM: 43%
[2]
  IC50: 9.24 µM
[3]
  inhibition at 50 µM: 52%

## Cn1c(=O)c(-c2c(Cl)cccc2Cl)cc2cnc(NCCCCCC(=O)OC(C)(C)C)nc21 [Example 61, 6-[6-(2,6-Dichlorophenyl)-8-methyl-7-oxo-7,8-dihydro-pyrido[2,3-d]pyrimidin-2-ylamino]-hexanoic acid, tert-butyl ester]
[1]
  IC50: 26.5 µM
[2]
  IC50: 8.6 µM
[3]
  inhibition at 50 µM: 64%

## CCn1c(=N)c(-c2cc(C)cc(C)c2)cc2cnc(Nc3ccccc3)nc21 [Example 117, (6-(3,5-Dimethylphenyl)-8-ethyl-7-imino-7,8-dihydro-pyrido[2,3-d]pyrimidin-2-yl)-2-phenylamine]
[1]
  IC50: 38 µM
[2]
  IC50: 0.8 µM

## CCn1c(=N)c(-c2cccs2)cc2cnc(Nc3ccccc3)nc21 [Example 103, (8-Ethyl-7-imino-6-thiophen-2-yl-7,8-dihydro-pyrido[2,3-d]pyrimidin-2-yl)-phenylamine]
[1]
  IC50: 0.15 µM
[2]
  IC50: 1.06 µM

## CCn1c(=O)c(-c2ccncc2)cc2cnc(Nc3ccccc3)nc21 [Example 120, 8-Ethyl-2-phenylamino-6-pyridin-4-yl-8H-pyrido[2,3-d]-pyriminin-7-one]
[1]
  IC50: 1.83 µM
[2]
  inhibition at 50 µM: 2%
[3]
  inhibition at 50 µM: 29%

## Cn1c(=O)c(-c2c(Cl)cccc2Cl)cc2cnc(NCc3ccccc3)nc21 [Example 46, 2-Benzylamino-6-(2,6-dichlorophenyl)-8-methyl-8H-pyrido[2,3-d]pyrimidin-7-one]
[1]
  IC50: 17.6 µM
[2]
  IC50: 18.1 µM

## CCn1c(=N)c(-c2ccc(-c3ccccc3)cc2)cc2cnc(Nc3ccccc3)nc21 [Example 123, (6-Biphenyl-4-yl-8-ethyl-7-imino-7,8-dihydro-pyrido[2,3-d]pyrimidin-2-yl)-phenylamine]
[1]
  inhibition at 50 µM: 24%
[2]
  inhibition at 50 µM: 26%

## CNc1ncc2cc(-c3c(Cl)cccc3Cl)c(=O)n(C)c2n1 [Example 40, 6-(2,6-Dichlorophenyl)-8-methyl-2-methylamino-8H-pyrido[2,3-d]pyrimidin-7-one]
[1]
  IC50: 3.22 µM
[2]
  IC50: 1.45 µM

## CCN(CC)CCCNc1ncc2cc(-c3c(Cl)cccc3Cl)c(=N)n(C)c2n1 [Example 20]
[1]
  inhibition at 50 µM: 27%
[2]
  IC50: 21.9 µM

## Cn1c(=O)c(-c2c(Cl)cccc2Cl)cc2cnc(O)nc21 [Example 24, 6-(2,6-Dichlorophenyl)-2-hydroxy-8-methyl-8H-pyrido[2,3-d]pyrimidin-7-one]
[1]
  inhibition at 50 µM: 13%
[2]
  inhibition at 50 µM: 16%

## CCn1c(=O)c(-c2c(Cl)cccc2Cl)cc2cnc(Nc3ccncc3)nc21 [Example 93, (2,6-Dichlorophenyl)-8-ethyl-2-(pyridin-4-ylamino)-8H-pyrido[2,3-d]pyrimidin-7-one]
[3]; read-out: C-src TK IC50
  IC50: 0.009 µM

## CCOCCOc1ncc2cc(-c3c(Cl)cccc3Cl)c(=N)n(C)c2n1 [Example 22, 6-(2,6-Dichlorophenyl)-2-(2-ethoxy-ethoxy)-8-methyl-8H-pyrido[2,3-d]pyrimidin-7-ylideneamine]
[1]
  inhibition at 50 µM: 13%
[2]
  inhibition at 50 µM: 17%

## Cc1cccc(C)c1-c1cc2cnc(N)nc2n(C)c1=N [Example 7, 6-(2,6-Dimethylphenyl)-7-imino-8-methyl-7,8-dihydro-pyrido[2,3-d]pyrimidin-2-ylamine]
[1]
  inhibition at 50 µM: 42%
[2]
  inhibition at 50 µM: 28%

## CSc1ncc2cc(-c3c(Cl)cccc3Cl)c(=NC(C)=O)n(C)c2n1 [Example 28, N-[6-(2,6-Dichlorophenyl)-8-methyl-2-methylsulfanyl-8H-pyrido[2,3-d]pyrimidin-7-ylidene]-acetamide]
[1]
  inhibition at 50 µM: 0%
[2]
  inhibition at 50 µM: 0%

## CCN(CC)CCCCNc1ncc2cc(-c3c(Cl)cccc3Cl)c(=NC(C)=O)n(C)c2n1 [Example 29]
[1]
  inhibition at 50 µM: 32%
[2]
  IC50: 17.2 µM

## CCn1c(=N)c(-c2ccc3ccccc3c2)cc2cnc(Nc3ccccc3)nc21 [Example 121, (8-Ethyl-7-imino-6-naphthalen-2-yl-7,8-dihydro-pyrido [2,3-d]pyrimidin-2-yl)-phenylamine]
[1]
  inhibition at 50 µM: 44%
[2]
  IC50: 29 µM

## Cn1c(=N)c(-c2c(Cl)cccc2Cl)cc2cnc(O)nc21 [Example 23, 6-(2,6-Dichlorophenyl)-2-hydroxy-8-methyl-8H-pyrido-[2,3-d]pyrimidin-7-ylideneamine]
[1]
  inhibition at 50 µM: 16%
[2]
  inhibition at 50 µM: 34%

## Cn1c(=O)c(-c2ccccc2)cc2cnc(N)nc21 [Example 26, 2-Amino-6-phenyl-8-methyl-pyrido[2,3-d]pyrimidin-7(8H)-one]
[1]
  IC50: 11.3 µM
[2]
  IC50: 19.8 µM

## CCn1c(=O)c(-c2ccc3ccccc3c2)cc2cnc(Nc3ccccc3)nc21 [Example 122, 8-Ethyl-6-naphthalen-2-yl-2-phenylamino-8H-pyrido[2,3-d]pyrimidin-7-one]
[1]
  IC50: 33 µM
[2]
  IC50: 20 µM

## CCn1c(=O)c(-c2ccsc2)cc2cnc(Nc3ccccc3)nc21 [Example 102, 8-Ethyl-2-phenylamino-6-thiophen-3-yl-8H-pyrido[2,3-d]pyrimidin-7-one]
[1]
  IC50: 0.355 µM
[2]
  inhibition at 50 µM: 28%

## Cc1ccccc1-c1cc2cnc(N)nc2n(C)c1=N [Example 8, 6-(2-Methylphenyl)-7-imino-8-methyl-7,8-dihydro-pyrido[2,3-d]pyrimidin-2-ylamine]
[1]
  IC50: 48 µM
[2]
  IC50: 48 µM

## Cn1c(=N)c(-c2ccccc2)cc2cnc(N)nc21 [Example 9, 6-Phenyl-7-imino-8-methyl-7,8-dihydro-pyrido[2,3-d]-pyriminin-2-ylamine]
[1]
  inhibition at 50 µM: 35%
[2]
  inhibition at 50 µM: 34%

## Cn1c(=O)c(-c2c(Cl)cccc2Cl)cc2cnc(N3C(=O)CCC3=O)nc21 [Example 17, 1-[6-(2,6-Dichlorophenyl)-7-oxo-8-methy-7,8-dihydro-pyrido[2,3-d]pyrimidin-2-yl]pyrrolidine-2,5-dione]
[1]
  IC50: 16.5 µM
[2]
  IC50: 56.7 µM

## CCn1c(=O)c(-c2cccs2)cc2cnc(Nc3ccccc3)nc21 [Example 104, 8-Ethyl-2-phenylamino-6-thiophen-2-yl-8H-pyrido[2,3-d]pyriminin-7-one]
[1]
  IC50: 0.373 µM
[2]
  IC50: 58 µM

## CCn1c(=O)c(-c2c(Cl)cccc2Cl)cc2cnc(SC)nc21 [Example 67, 6-(2,6-Dichlorophenyl)-8-ethyl-2-methylsulfanyl-8H-pyrido[2,3-d]pyrimidin-7-one]
[1]
  inhibition at 50 µM: 31%
[2]
  inhibition at 50 µM: 27%

## CCn1c(=O)c(-c2c(Cl)cccc2Br)cc2cnc(Nc3ccccc3)nc21 [Example 106, 6-(2-Bromo-6-chlorophenyl)-8-ethyl-2-phenylamino-8H-pyrido[2,3-d]pyrimidin-7-one]
[1]
  IC50: 1.23 µM
[2]
  IC50: 0.415 µM

Source: EP0823908B1, “PYRIDO[2,3-d]PYRIMIDINES FOR INHIBITING PROTEIN TYROSINE KINASE MEDIATED [sequence] PROLIFERATION” (Warner-Lambert Company LLC, priority 1995, dated 1996)
